# Measured values as given in patent US20040106545A1, “Compounds and methods for modulating cell adhesion” (priority 1996, published 2004).
# “Also recorded” adds a separate entry of the source. Where two headings read alike, the source gives them in different places. Positions of bridges follow the written chain, without caps; N, C: chain ends. Residues, ends and D or L forms follow the SMILES beside them.
# How the values were obtained:
# PC-3 [1] = assay: Cytotoxicity, MTT assay, PC-3; type: cell-based, human
# Procedure, shortened: (§1)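 Human primary endothelial cells, fibroblast lines (IAFp2, WI-38) and cancer lines (MDA-MB231, PC-3) receive the CHAVC peptide or the CHGVC control at ≤100 μM. Viability is scored by MTT and DNA synthesis by ^3H-thymidine uptake.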
# Solubility in RPMI = type: physicochemical; settings: 1 mM
# MDA-MB231 [2] = assay: Cytotoxicity, MTT assay, MDA-MB231; type: cell-based, human
# Procedure, shortened: as §1
# N-cadherin = biological target: T1, N-cadherin (Gallus gallus, UniProt P10288); assay: Neurite outgrowth inhibition, rat neurons (Example 21); type: cell-based; settings: read-out: % Inhibition of neurite outgrowth; 250 μg/mL
# T1 construct: expressed in transfected cells; host or cells: 3T3 fibroblasts (monolayer)
# T1 sequence (P10288 165-912): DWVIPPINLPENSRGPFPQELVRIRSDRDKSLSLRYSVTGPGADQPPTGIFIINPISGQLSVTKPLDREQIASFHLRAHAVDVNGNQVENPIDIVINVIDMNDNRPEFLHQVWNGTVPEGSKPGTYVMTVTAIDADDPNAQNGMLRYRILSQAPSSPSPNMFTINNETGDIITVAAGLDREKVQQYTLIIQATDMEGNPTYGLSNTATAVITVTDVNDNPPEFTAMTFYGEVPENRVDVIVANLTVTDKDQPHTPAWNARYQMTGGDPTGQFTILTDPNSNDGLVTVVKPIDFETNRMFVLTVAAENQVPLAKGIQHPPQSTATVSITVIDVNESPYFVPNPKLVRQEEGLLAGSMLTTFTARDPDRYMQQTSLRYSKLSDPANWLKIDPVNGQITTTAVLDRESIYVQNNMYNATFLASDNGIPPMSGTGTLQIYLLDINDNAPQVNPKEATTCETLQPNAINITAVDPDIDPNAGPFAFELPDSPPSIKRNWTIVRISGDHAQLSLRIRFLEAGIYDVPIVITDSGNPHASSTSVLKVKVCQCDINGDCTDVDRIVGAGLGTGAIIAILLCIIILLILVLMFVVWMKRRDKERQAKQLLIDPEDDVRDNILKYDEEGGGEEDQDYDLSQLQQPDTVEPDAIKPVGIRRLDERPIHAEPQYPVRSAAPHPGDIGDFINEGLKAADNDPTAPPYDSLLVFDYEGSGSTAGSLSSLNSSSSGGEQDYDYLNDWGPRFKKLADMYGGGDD
# HUVEC = type: cell-based, human; settings: 3 h
# Procedure, shortened: as §1
# MDA-MB231 [3] = type: cell-based, human; settings: 3 h
# Procedure, shortened: as §1
# HMVEC = type: cell-based, human; settings: 3 h
# Procedure, shortened: as §1
# IAFp2 = type: cell-based, human; settings: 3 h
# Procedure, shortened: as §1
# PC-3 [4] = type: cell-based, human; settings: 3 h
# Procedure, shortened: as §1
# WI-38 = type: cell-based, human; settings: 3 h
# Procedure, shortened: as §1
# [5] = tested on: Madin Darby canine kidney (MDCK) cells; type: cell-based
# Method: Yet another assay evaluates the effect of a modulating agent on the electrical resistance across a monolayer of cells. For example, Madin Darby canine kidney (MDCK) cells can be exposed to the modulating agent dissolved in medium (e.g., at a final concentration of 0.5 mg/ml for a period of 24 hours). The effect on electrical resistance can be measured using standard techniques. This assay evaluates the effect of a modulating agent on tight junction formation in epithelial cells. In general, the presence of 500 μg/mL modulating agent should result in a statistically significant decrease in electrical resistance after 24 hours.
# Madin Darby canine kidney (MDCK) cells were plated in Millicells (Millipore, Bedford, Mass.), at a density of 300,000 cells per Millicell, and cultured in Dulbecco's Modified Eagle Medium (DMEM; Sigma, St. Louis, Mo.) containing 5% fetal calf serum (Sigma, St. Louis, Mo.) until monolayers formed. Monolayers were exposed to the modulating agent dissolved in medium. The electrical resistance was measured using the EVOM device (World Precision Instruments, Sarasota, Fla.). At the time of measurement, fresh medium, with or without the modulating agent, may be added to the Millicells.
# SKOV3 cells = assay: Disruption of human ovarian cancer cell (SKOV3) adhesion; type: cell-based; settings: 1 mg/mL media, within 24 hours
# Method: FIGS. 37A and 37B are photographs illustrating the effect of N—Ac-CHAVC-Y—NH2 (SEQ ID NO:84) on SKOV3 cell adhesion. A confluent culture of SKOV3 cells was briefly trypsinated and counted using a hemacytometer. The cells were diluted to 5×10^3/mL in MEM (Gibco BRL) containing 10% FBS (Wisent). A 10 mg/mL solution of peptide was added directly to the media at a concentration of 1 mg/mL. The plate was incubated in a humidified chamber at 37° C. for 24 hours in 5% CO2. Morphological changes were evaluated after 24 hours.
# The human ovarian cancer cell line SKOV3 (ATCC #HTB-77) expresses N-cadherin. SKOV3 cells were cultured in a modified MEM-based media containing 10% FCS. Cells were grown in T-250 culture flasks and maintained by periodic subculturing. Cyclic peptides were tested on cells grown in individual wells of 96-well culture dishes (surface area of each well was 0.32 cm^2). Cells were harvested from flasks and seeded at a density of 50,000 cells per well in 0.1 mL media containing the cyclic peptides at concentrations of 1, 0.1, or 0.01 mg/mL, or in the absence of cyclic peptide. Media control wells were also established. Cultures were evaluated periodically by microscopic examination under both bright field and phase contrast conditions. Cultures were maintained for 48 hours.
# [6] = tested on: Madin Darby canine kidney (MDCK) cells; type: cell-based; settings: 18 h
# chick N-cadherin = biological target: T2, chick N-cadherin (Gallus gallus, UniProt P10288); assay: Neurite outgrowth of rat cerebellar neurons on N-cadherin expressing 3T3 monolayers (Example 15); type: cell-based
# T2 construct: expressed in transfected cells; host or cells: 3T3 fibroblasts (monolayer); rat post-natal day 2-3 cerebellar neurons plated on top
# T2 sequence (P10288 165-912): T1 sequence (P10288 165-912)
# Method: (§2) Cell culture and neurite outgrowth assays. Co-cultures of cerebellar neurons on monolayers of control 3T3 cells and monolayers of transfected 3T3 cells that express physiological levels of chick N-cadherin or human L1 were established as previously described (Williams et al., Neuron 13:583-594, 1994). In brief, 80,000 3T3 cells (control and transfected) were plated into individual chambers of an eight-chamber tissue culture slide coated with polylysine and fibronectin and cultured in DMEM/10% FCS. After 24 hours, when confluent monolayers had formed, the medium was removed and 3000 cerebellar neurons isolated from post-natal day 2-3 rats were plated into each well in SATO media (Doherty et al., Nature 343:464-466, 1990) supplemented with 2% FCS. All of the test peptides were added immediately before the neurons as a 2× stock prepared in SATO/2% FCS. The co-cultures were maintained for 16-18 hours, at which time they were fixed and immunostained for GAP-43 which is present only in the neurons and delineates the neuritic processes. The mean length of the longest neurite per cell was measured for 150-200 neurons sampled in replicate cultures as previously described (Williams et al., Neuron 13:583-594, 1994). […] Dose-response curves were evaluated and the EC50 values determined.
# L1 = L1 (Homo sapiens, UniProt P32004); assay: Neurite outgrowth of rat cerebellar neurons on L1 expressing 3T3 monolayers (Example 15); type: cell-based; design: expressed in transfected cells; rat cerebellar neurons on top
# Sequence of L1 (P32004 20-1257): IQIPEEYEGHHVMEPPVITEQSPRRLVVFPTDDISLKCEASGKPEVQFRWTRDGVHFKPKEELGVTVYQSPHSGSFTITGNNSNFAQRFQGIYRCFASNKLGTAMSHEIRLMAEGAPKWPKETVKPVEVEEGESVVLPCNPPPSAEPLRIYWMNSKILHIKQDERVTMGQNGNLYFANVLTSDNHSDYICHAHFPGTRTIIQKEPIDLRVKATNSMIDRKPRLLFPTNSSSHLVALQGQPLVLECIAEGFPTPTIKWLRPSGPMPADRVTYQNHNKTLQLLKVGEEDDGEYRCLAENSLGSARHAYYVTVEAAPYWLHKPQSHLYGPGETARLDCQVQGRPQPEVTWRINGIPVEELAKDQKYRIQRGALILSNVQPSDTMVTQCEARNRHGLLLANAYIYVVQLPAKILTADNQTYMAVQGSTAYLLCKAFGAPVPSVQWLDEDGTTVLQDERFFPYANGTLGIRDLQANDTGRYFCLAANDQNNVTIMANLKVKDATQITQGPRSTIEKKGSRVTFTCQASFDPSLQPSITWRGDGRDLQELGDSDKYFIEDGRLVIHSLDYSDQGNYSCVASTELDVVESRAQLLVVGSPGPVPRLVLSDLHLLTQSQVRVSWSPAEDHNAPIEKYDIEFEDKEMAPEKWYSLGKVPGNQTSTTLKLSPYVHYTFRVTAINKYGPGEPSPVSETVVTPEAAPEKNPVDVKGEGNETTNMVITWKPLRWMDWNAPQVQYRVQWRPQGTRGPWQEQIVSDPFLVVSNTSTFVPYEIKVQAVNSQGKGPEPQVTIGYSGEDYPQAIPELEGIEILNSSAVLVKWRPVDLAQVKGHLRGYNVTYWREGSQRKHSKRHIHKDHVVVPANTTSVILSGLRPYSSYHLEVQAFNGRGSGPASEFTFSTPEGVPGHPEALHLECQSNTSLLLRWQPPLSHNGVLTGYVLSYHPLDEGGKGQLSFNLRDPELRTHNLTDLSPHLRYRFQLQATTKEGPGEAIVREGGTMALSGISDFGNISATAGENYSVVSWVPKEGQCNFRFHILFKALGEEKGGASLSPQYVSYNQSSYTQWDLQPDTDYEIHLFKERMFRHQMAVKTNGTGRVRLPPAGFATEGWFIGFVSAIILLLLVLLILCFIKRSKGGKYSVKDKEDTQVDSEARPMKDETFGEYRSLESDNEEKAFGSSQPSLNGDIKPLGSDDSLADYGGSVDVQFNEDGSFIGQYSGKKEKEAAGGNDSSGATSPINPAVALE
# Method: as §2
# Other cell adhesion molecules, such as L1, can stimulate neurite outgrowth, and this response shares the same downstream signaling steps as the N-cadherin response. […] As previously reported, L1 stimulated neurite outgrowth from cerebellar neurons.
# [7] = tested on: Human saphenous vein vascular smooth muscle cells; assay: Vascular smooth muscle cell apoptosis at migrating wound edge, in situ end labeling; type: cell-based; settings: 0.2 mg/ml, 24 hours after wounding, n=5, p=0.1
# Method: Human saphenous vein vascular smooth muscle cells were explanted from surplus segments of vein from patients undergoing coronary artery bypass surgery. Cells were maintained in Dulbecco's modified essential medium supplemented with […], 2 mmol/L L-glutamine and 10% fetal calf serum and were grown to confluence on glass coverslips. The cell layer was then subjected to scrape-wounding by drawing a fine cell scraper across the coverslip. Proliferation of the vascular smooth muscle cells was inhibited by addition of 2 mM hydroxyurea to the culture media. Vascular smooth muscle cells that are treated in this manner respond to the wounding of the confluent monolayer by migrating into the wound (Hammerle et al (1991) Vasa 20, 207-215). The percentage of apoptotic cells in the migrating edge (outermost 100 μm from the wound) was assessed by in situ end labeling at 24 hours after wounding (as in George et al (2001) Gene Therapy 8 668-676).
# [8] = tested on: Bovine pulmonary artery endothelial cells; assay: Disruption of bovine endothelial cell adhesion; type: cell-based; settings: 500 μg/ml, 30 minutes
# Method: For use within one such assay, bovine pulmonary artery endothelial cells may be harvested by sterile ablation and digestion in 0.1% collagenase (type II; Worthington Enzymes, Freehold, N.J.). Cells may be maintained in Dulbecco's minimum essential medium supplemented with 10% fetal calf serum and 1% antibiotic-antimycotic at 37° C. in 7% CO2 in air. Cultures may be passaged weekly in trypsin-EDTA and seeded onto tissue culture plastic at 20,000 cells/cm^2. Endothelial cultures may be used at 1 week in culture, which is approximately 3 days after culture confluency is established. The cells may be seeded onto coverslips and treated (e.g., for 30 minutes) with modulating agent or a control compound at, for example, 500 μg/ml and then fixed with 1% paraformaldehyde. As noted above, disruption of cell adhesion may be determined visually within 24 hours, by observing retraction of the cells from one another. This assay evaluates the effect of a modulating agent on N-cadherin mediated cell adhesion.
# Bovine pulmonary artery endothelial cells were harvested by sterile ablation and digestion in 0.1% collagenase (type II; Worthington Enzymes, Freehold, N.J.). Cells were maintained in Dulbecco's minimum essential medium (Clonetics, San Diego, Calif.) supplemented with 10% fetal calf serum (Atlantic Biologicals, Nor cross, Ga.) and 1% antibiotic-antimycotic at 37° C. in 7% CO2 in air. Cultures were passaged weekly in trypsin-EDTA (Gibco, Grand Island, N.Y.) and seeded onto tissue culture plastic at 20,000 cells/cm^2 for all experiments. Endothelial cultures were used at 1 week in culture, which is approximately 3 days after culture confluency was established. The cells used in all protocols were between 4th passage and 10th passage. The cells were seeded onto coverslips and treated 30 minutes with N—Ac-CHAVC-NH2 (SEQ ID NO:10) or N—Ac-CHGVC-NH2 (SEQ ID NO:11) at 500 μg/ml and then fixed with 1% paraformaldehyde.
solubility in RPMI (Solubility in RPMI),inhibition at 250 µg/mL (N-cadherin),IC50 (MDA-MB231 [3]),IC50 (HMVEC),IC50 (IAFp2),IC50 (PC-3 [4]),"% inhibition of N-cadherin dependent neurite outgrowth (chick N-cadherin; 125 μg/mL, 16-18 hours)","inhibition at 125 µg/mL (chick N-cadherin; 125 μg/mL, 16-18 hours, read-out: % Inhibition of N-Cadherin Dependent Neurite Outgrowth)","inhibition at 125 µg/mL (L1; 125 μg/ml, read-out: % Inhibition of L1 Response)",Compound,IC50 (PC-3 [1]),IC50 (MDA-MB231 [2]),IC50 (HUVEC),IC50 (WI-38),effect on electrical resistance across MDCK cells (in words) [5],disruption of SKOV3 cell adhesion (SKOV3 cells),EC50 [6],effect on L1 stimulated neurite outgrowth (in words) (L1; concentrations that inhibited the N-cadherin response (100 μg/mL in FIG. 24)),"inhibitory activity on N-cadherin dependent neurite outgrowth, structure/activity statements (chick N-cadherin; Tables 8 and 9)",increase in apoptosis at wound edge [7],effect on endothelial cell monolayer / morphology [8]
*Incompletely soluble in RPMI at 1 mM,0%,76 µM,70 µM,> 100 µM,> 100 µM,,,,CC(=O)N[C@H]1CSSC[C@@H](C(N)=O)NC(=O)[C@H](CO)NC(=O)[C@H](CO)NC(=O)[C@H](C(C)C)NC(=O)[C@H](C)NC(=O)[C@H](Cc2c[nH]cn2)NC(=O)[C@H](CO)NC1=O (Ac-CSHAVSSC-NH2; disulfide 1-8 (inferred)),> 100 µM,> 100 µM,69 µM,> 100 µM,,,,,,,
,,,,,,89.8 ± 6.8%,89.9%,,CC(=O)N[C@H]1CSSC[C@@H](C(=O)N[C@@H](Cc2ccc(O)cc2)C(N)=O)NC(=O)[C@H](C(C)C)NC(=O)[C@H](C)NC(=O)[C@H](Cc2c[nH]cn2)NC1=O [N—Ac—CHAVCY—NH2] (Ac-CHAVCY-NH2; disulfide 1-5),,,,,the most active,disrupted SKOV3 cell adhesion,210 µM,,,,
,,,,,,,,6 ± 4.7%,CC[C@H](C)[C@@H]1NC(=O)[C@H](CC(=O)O)NC(=O)[C@H](C(C)C)NC(=O)[C@H](C)NC(=O)[C@H](Cc2c[nH]cn2)NC(=O)[C@@H](NC(C)=O)CSSC[C@@H](C(N)=O)NC1=O [N—Ac—CHAVDIC—NH2] (Ac-CHAVDIC-NH2; disulfide 1-7),,,,,complete abrogation of E-cadherin specific activity,,,did not interfere with the ability of neurons to extend neurites over 3T3 cells expressing L1,further increased activity; also recorded: potent inhibitors,1.3 fold,
,0%,> 100 µM,> 100 µM,> 100 µM,> 100 µM,,,,CC[C@H](C)[C@@H]1NC(=O)[C@H](CC(=O)O)NC(=O)[C@H](C(C)C)NC(=O)CNC(=O)[C@H](Cc2c[nH]cn2)NC(=O)[C@H](C)NC(=O)[C@@H](NC(C)=O)CSSC[C@@H](C(N)=O)NC1=O (Ac-CAHGVDIC-NH2; disulfide 1-8),> 100 µM,> 100 µM,> 100 µM,> 100 µM,,,,,,,neither of the cyclic peptides show activity
